Key:
[1] = Removal test of heavy metals of active ingredients (pig skin, ICP-MS): Cd; conditions: contaminated pig skin
Procedure: (§1) (1) Preparation of Heavy Metal Contamination Sources and Pig Skin Samples
(§2) A pig was slaughtered, flayed and the bristle was shaved. The pig skin was cut to prepare 5*5 cm size of skin samples respectively.
(§3) The said skin samples were cleanly wiped with wet gauze, and then, added to 50 ml of methanol and extracted by shaking with ultrasonic for 60 min. 50 ml of methanol was further added and mixed. The pig skin samples were removed from the extracted solutions to prepare the test solutions.
(§4) The test solutions were analyzed for heavy metal components using an inductively coupled plasma mass spectrometer (ICP-MS, Xseries™ 2, Thermo Fisher Scientific, UK).

human skin = assay: Skin irritation test of active ingredient (patch method, CTFA guidelines); type: in vivo; set-up: key to Degree of irritation: 0–0.1 none, 0.11–0.3 weak, 0.31–0.5 moderate, ≥0.51 strong irritation; conditions: 20 people, patch 24 hours; for Test result(number of subject) (+): (+): Apparent reddening than periphery; for Test result(number of subject) (++): (++): More reddened and swollen than periphery; for Test result(number of subject) (±): (±): slightly reddish than the periphery; for Test result(number of subject) (−): (−): No erythema or particularly no symptoms
Procedure: A total of 20 people (10 men and 10 women in their 20 s and 30 s) were tested for skin irritation using the patch method according to the guidelines of CTFA (The Cosmetic, Toiletry & Fragrance Association, Inc. Washington, D.C.).
A filter paper disk was placed in an 8 mm diameter, 10 panels of pin chamber.
After 24 hours, the pin chamber was removed, and skin conditions were visually observed.
[Criteria for Skin Irritation]
(−): No erythema or particularly no symptoms; (±): slightly reddish than the periphery; (+): Apparent reddening than periphery; (++): More reddened and swollen than periphery.
[Grade for Skin Irritation]
Degree of irritation 0-0.1: Grade I (unstimulated);
Degree of irritation 0.11-0.3: Grade II (weakly stimulated);
Degree of irritation 0.31-0.5: Grade III (moderately stimulated);
Degree of irritation 0.51 or more: Grade IV (strongly stimulated)

[2] = Removal test of heavy metals of active ingredients (pig skin, ICP-MS): Pb; conditions: contaminated pig skin
Procedure: as §1, §2, §3, §4

[3] = Formaldehyde removing ability test (GC); conditions: 2.0% formaldehyde solution; for Area (mAU*min) 30 min: formaldehyde GC area after 30 min; for Area (mAU*min) 30 min / Area (mAU*min) 180 min: 3 molar equivalents, room temperature; for Area (mAU*min) 180 min: formaldehyde GC area after 180 min; for Area (mAU*min) Initial: formaldehyde GC area, initial state, 3 molar equivalents of compound
[4] = Removal test of heavy metals of active ingredients (pig skin, ICP-MS): Cu; conditions: contaminated pig skin
Procedure: as §1, §2, §3, §4

Row | Compound | Removal of Heavy metals Cd (%) ([1]; 0.1 wt % aqueous solution) | Removal of Heavy metals Cd (%) ([1]; 0.5 wt % aqueous solution) | Removal of Heavy metals Cd (%) ([1]; 1.0 wt % aqueous solution) | Degree of irritation (human skin; 0.1 wt %) | Grade (human skin; 0.1 wt %) | Test result(number of subject) (+) (human skin; 0.1 wt %) | Test result(number of subject) (++) (human skin; 0.1 wt %) | Test result(number of subject) (±) (human skin; 0.1 wt %) | Test result(number of subject) (−) (human skin; 0.1 wt %) | Degree of irritation (human skin; 0.5 wt %) | Grade (human skin; 0.5 wt %) | Test result(number of subject) (+) (human skin; 0.5 wt %) | Test result(number of subject) (++) (human skin; 0.5 wt %) | Test result(number of subject) (±) (human skin; 0.5 wt %) | Test result(number of subject) (−) (human skin; 0.5 wt %) | Degree of irritation (human skin; 1.0 wt %) | Grade (human skin; 1.0 wt %) | Test result(number of subject) (+) (human skin; 1.0 wt %) | Test result(number of subject) (++) (human skin; 1.0 wt %) | Test result(number of subject) (±) (human skin; 1.0 wt %) | also measured
1 | O=C(O)CN1CCN(CC(=O)O)CCN(CC(=O)O)CCN(CC(=O)O)CC1 [Embodiment 5, 2,2′,2″,2′″-(1,4,7,10-tetraazacyclododecane-1,4,7,10-tetrayl)tetraacetic acid] | 90.4 | 93.6 | 93.7 | 0 | I (Degree of irritation 0-0.1: Grade I (unstimulated)) | 0 | 0 | 0 | 20 | 0 | I (Degree of irritation 0-0.1: Grade I (unstimulated)) | 0 | 0 | 0 | 20 | 0.05 | I (Degree of irritation 0-0.1: Grade I (unstimulated)) | 0 | 0 | 1 | Test result(number of subject) (−) (human skin; 1.0 wt %): 19; Removal of Heavy metals Pb (%) ([2]; 0.1 wt % aqueous solution): 92.4%; Removal of Heavy metals Pb (%) ([2]; 0.5 wt % aqueous solution): 94.7%; Removal of Heavy metals Pb (%) ([2]; 1.0 wt % aqueous solution): 95.1%; Area (mAU*min) 30 min [3]: 0.179 mAU*min; Area (mAU*min) 180 min [3]: 0 mAU*min; Area (mAU*min) Initial [3]: 0.305 mAU*min; Removal of Heavy metals Cu (%) ([4]; 0.1 wt % aqueous solution): 94.6%; Removal of Heavy metals Cu (%) ([4]; 0.5 wt % aqueous solution): 96.8%; Removal of Heavy metals Cu (%) ([4]; 1.0 wt % aqueous solution): 97.2%
2 | O=C(O)CN(CCN(CCN(CC(=O)O)CC(=O)O)CC(=O)O)CCN(CC(=O)O)CC(=O)O [Embodiment 1, 3,6,9,12-tetrakis(carboxymethyl)-3,6,9,12-tetraazatetradecanedioic acid] | 91.0 | 93.0 | 94.1 | 0 | I (Degree of irritation 0-0.1: Grade I (unstimulated)) | 0 | 0 | 0 | 20 | 0.05 | I (Degree of irritation 0-0.1: Grade I (unstimulated)) | 0 | 0 | 1 | 19 | 0.20 | II (Degree of irritation 0.11-0.3: Grade II (weakly stimulated)) | 0 | 0 | 4 | Test result(number of subject) (−) (human skin; 1.0 wt %): 16; Removal of Heavy metals Pb (%) ([2]; 0.1 wt % aqueous solution): 91.1%; Removal of Heavy metals Pb (%) ([2]; 0.5 wt % aqueous solution): 92.0%; Removal of Heavy metals Pb (%) ([2]; 1.0 wt % aqueous solution): 92.1%; Area (mAU*min) 30 min [3]: 0.170 mAU*min; Area (mAU*min) 180 min [3]: 0 mAU*min; Area (mAU*min) Initial [3]: 0.305 mAU*min; Removal of Heavy metals Cu (%) ([4]; 0.1 wt % aqueous solution): 95.2%; Removal of Heavy metals Cu (%) ([4]; 0.5 wt % aqueous solution): 97.3%; Removal of Heavy metals Cu (%) ([4]; 1.0 wt % aqueous solution): 97.5%
3 | O=C(O)c1cncc(N2CCN(c3cncc(C(=O)O)c3)CCN(c3cncc(C(=O)O)c3)CCN(c3cncc(C(=O)O)c3)CC2)c1 [Embodiment 7, 5,5′,5″,5′″-(1,4,7,10-tetraazacyclododecane-1,4,7,10-tetrayl)tetranicotinic acid] | 87.9 | 89.4 | 90.7 | 0 | I (Degree of irritation 0-0.1: Grade I (unstimulated)) | 0 | 0 | 0 | 20 | 0 | I (Degree of irritation 0-0.1: Grade I (unstimulated)) | 0 | 0 | 0 | 20 | 0 | I (Degree of irritation 0-0.1: Grade I (unstimulated)) | 0 | 0 | 0 | Test result(number of subject) (−) (human skin; 1.0 wt %): 20; Removal of Heavy metals Pb (%) ([2]; 0.1 wt % aqueous solution): 90.8%; Removal of Heavy metals Pb (%) ([2]; 0.5 wt % aqueous solution): 93.1%; Removal of Heavy metals Pb (%) ([2]; 1.0 wt % aqueous solution): 93.6%; Area (mAU*min) 30 min [3]: 0.181 mAU*min; Area (mAU*min) 180 min [3]: 0 mAU*min; Area (mAU*min) Initial [3]: 0.305 mAU*min; Removal of Heavy metals Cu (%) ([4]; 0.1 wt % aqueous solution): 93.8%; Removal of Heavy metals Cu (%) ([4]; 0.5 wt % aqueous solution): 95.1%; Removal of Heavy metals Cu (%) ([4]; 1.0 wt % aqueous solution): 96.0%
4 | O=C(O)c1ccc(N2CCCN(c3ccc(C(=O)O)cc3)CCN(c3ccc(C(=O)O)cc3)CCCN(c3ccc(C(=O)O)cc3)CC2)cc1 [Embodiment 10, 4,4′,4″,4′″-(1,4,8,11-tetraazacyclotetradecane-1,4,8,11-tetrayl)tetrabenzoic acid] | 85.7 | 90.4 | 91.1 | 0 | I (Degree of irritation 0-0.1: Grade I (unstimulated)) | 0 | 0 | 0 | 20 | 0 | I (Degree of irritation 0-0.1: Grade I (unstimulated)) | 0 | 0 | 0 | 20 | 0.05 | I (Degree of irritation 0-0.1: Grade I (unstimulated)) | 0 | 0 | 1 | Test result(number of subject) (−) (human skin; 1.0 wt %): 19; Removal of Heavy metals Pb (%) ([2]; 0.1 wt % aqueous solution): 88.3%; Removal of Heavy metals Pb (%) ([2]; 0.5 wt % aqueous solution): 90.5%; Removal of Heavy metals Pb (%) ([2]; 1.0 wt % aqueous solution): 90.9%; Area (mAU*min) 30 min [3]: 0.171 mAU*min; Area (mAU*min) 180 min [3]: 0 mAU*min; Area (mAU*min) Initial [3]: 0.305 mAU*min; Removal of Heavy metals Cu (%) ([4]; 0.1 wt % aqueous solution): 94.1%; Removal of Heavy metals Cu (%) ([4]; 0.5 wt % aqueous solution): 96.0%; Removal of Heavy metals Cu (%) ([4]; 1.0 wt % aqueous solution): 96.5%
5 | NCCNCCNCCN [Trientine, Triethylenetetramine, reference compound] | 87.3 | 92.4 | 92.3 | 0 | I (Degree of irritation 0-0.1: Grade I (unstimulated)) | 0 | 0 | 0 | 20 | 0.05 | I (Degree of irritation 0-0.1: Grade I (unstimulated)) | 0 | 0 | 1 | 19 | 0.15 | II (Degree of irritation 0.11-0.3: Grade II (weakly stimulated)) | 0 | 0 | 3 | Test result(number of subject) (−) (human skin; 1.0 wt %): 17; Removal of Heavy metals Pb (%) ([2]; 0.1 wt % aqueous solution): 89.7%; Removal of Heavy metals Pb (%) ([2]; 0.5 wt % aqueous solution): 92.1%; Removal of Heavy metals Pb (%) ([2]; 1.0 wt % aqueous solution): 92.3%; Area (mAU*min) 30 min [3]: 0.168 mAU*min; Area (mAU*min) 180 min [3]: 0 mAU*min; Area (mAU*min) Initial [3]: 0.305 mAU*min; Removal of Heavy metals Cu (%) ([4]; 0.1 wt % aqueous solution): 92.6%; Removal of Heavy metals Cu (%) ([4]; 0.5 wt % aqueous solution): 95.4%; Removal of Heavy metals Cu (%) ([4]; 1.0 wt % aqueous solution): 96.0%
